Results on 8 molecules are retold here after paper PMC9863027, “Bioactive Alpha-Pyrone and Phenolic Glucosides from the Marine-Derived Metarhizium sp. P2100” (Journal of Fungi, 2022).

pIC50: −log10 of the molar value. Where two headings read alike, the source gives them in different places.

Series [1] has as its system NO production in mouse macrophage. As to the kind of experiment: NO production inhibitory activity in LPS-stimulated mouse macrophage (Griess reaction). It is filed as cell-based. Particulars: concentration of 50 μM; LPS 1 μg/mL; mean ± SD. The protocol: The bioassay for NO production inhibitory activity was conducted as described by Xia. The mouse macrophage was seeded in 96-well plates. In each well, lipopolysaccharide (LPS) (1 μg/mL) was added after treating it with or without the tested compound for 24 h. The NO production in the supernatant was detected by the Griess reaction. The absorbance at 540 nm was measured with a microplate reader. The NO concentration and the inhibitory rate were calculated through a calibration curve. Dexamethasone was used as the positive control. Experiments were operated in triplicate, and the data were described as the mean ± SD of three independent experiments.
A general note: The Griess reaction detects nitrite, a stable product of nitric oxide.

The next series deals with T1, α-amylase (Sus scrofa, UniProt P00690).
T1 sequence (P00690 16-511): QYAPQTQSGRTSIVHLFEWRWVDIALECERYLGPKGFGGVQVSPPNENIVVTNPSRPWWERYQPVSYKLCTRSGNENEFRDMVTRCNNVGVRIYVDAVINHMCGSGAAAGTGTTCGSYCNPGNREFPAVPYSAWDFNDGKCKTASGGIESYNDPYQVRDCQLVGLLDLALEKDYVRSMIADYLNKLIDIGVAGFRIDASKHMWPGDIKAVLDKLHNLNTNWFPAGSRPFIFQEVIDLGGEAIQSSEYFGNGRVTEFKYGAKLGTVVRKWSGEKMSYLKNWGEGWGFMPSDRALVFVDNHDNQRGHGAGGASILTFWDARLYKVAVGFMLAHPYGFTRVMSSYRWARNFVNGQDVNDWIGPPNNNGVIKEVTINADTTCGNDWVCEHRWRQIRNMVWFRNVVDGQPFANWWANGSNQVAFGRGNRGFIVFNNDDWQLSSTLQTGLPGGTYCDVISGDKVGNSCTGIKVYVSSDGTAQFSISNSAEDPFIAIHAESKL
As to the kind of experiment: α-amylase inhibition activity (starch substrate, dinitrosalicylic acid reagent). In kind it is biochemical. Particulars: read-out: IC50 against α-amylase. The protocol:
The α-amylase inhibition activity was measured by Milella with minor modifications. Tested compounds and 1-Deoxynojirimycin (1-DNJ) were dissolved in methanol at different concentrations. A substrate solution was prepared with 0.25% starch dissolved in 20 mM phosphate buffer solution (PBS). The enzyme (10 units/mL of α-amylase in PBS, 25 µL) and sample solutions (25 µL) were mixed in Eppendorf vials, and the mixtures were incubated at 37 °C for 10 min. Then, 25 µL of substrate solution was added to each tube, and the reaction mixture was incubated at 37 °C for 10 min. The reaction was terminated by adding 150 µL of dinitrosalicylic acid color reagent. Subsequently, the test tubes were heated for 5 min at 100 °C. After cooling at room temperature, the absorbance was measured at 540 nm. The absorbance of the blank (enzyme solution was added during the boiling) and negative controls (methanol) were recorded. Analyses were performed in triplicate, and the final sample absorbance was obtained by subtracting its corresponding blank reading. The inhibitory activity (%) was calculated as follows: % inhibition=(1−A540 sample/A540 negative control) × 100%
The half-maximal inhibitory concentration (IC50) values were calculated according to the inhibition curve and the data were shown in the layout of mean ± SEM by GraphPad Prism 6.0 (GraphPad Software, Inc., La Jolla, CA, USA).

In series [2] the target is protein tyrosine phosphatase 1B (PTP1B). Particulars: read-out: IC50 against PTP1B, cited from earlier work.
In another series the test system is HEp-2 cells. More on the design: method as in earlier work. Conditions: read-out: IC50 cytotoxicity against HEp-2; cited from earlier work.
A further series relates to HepG2 cells. Also on record: method as in earlier work. Particulars: read-out: IC50 cytotoxicity against HepG2; cited from earlier work.

In general, pIC50 refers to the IC50 on a negative log10 scale, so that one unit is a factor of ten. “4-(4′-methoxy-β-D-glucosyl)-6-pentyl-2-pyrone [Compound 1]”: in series [1], the “NO production inhibition ratio (%)” value was 53.85 ± 2.32%. In addition, the negative logarithm of the IC50 (pIC50) on α-amylase is 3.89. As for `C[C@@H]1C[C@H]2[C@@H]3CCC4=CC(=O)C=C[C@]4(C)[C@@]3(F)[C@@H](O)C[C@]2(C)[C@@]1(O)C(=O)CO` [Dexamethasone, reference compound], the “NO production inhibition ratio (%)” value in series [1] stood at 63.88 ± 2.07%. On the same count and under the same terms, in the case of `CCCCC(OC1OC(CO)C(OC)C(O)C1O)c1cc(OC)cc(=O)o1` [Compound 3, 7(S)-(4′-methoxy-β-D-glucosyl)-4-methoxy-6-pentyl-2-pyrone] it was 68.44 ± 3.75%. Take `CCCCCCCCCCCCCCCc1cc(O[C@@H]2O[C@H](CO)[C@@H](O)[C@H](O)[C@H]2O)cc(O)c1C(=O)Oc1cc(C)c(C(=O)O)c(O)c1` [Aquastatin A]: the pIC50 in series [2] (competitive manner) was 6.72. With Lecaniside C, the negative-log IC50 (pIC50) in series [2] was less than 4.30. On to `COc1cc(C(C)=O)ccc1O[C@@H]1O[C@H](CO)[C@@H](OC)[C@H](O)[C@H]1O` [Compound 4, Lecaniside D], for which the “NO production inhibition ratio (%)” value in series [1] was 68.10 ± 2.07%.

For the molecule `CCCCC(OC1OC(CO)C(OC)C(O)C1O)c1cc(OC)cc(=O)o1` [Compound 2, 7(R)-(4′-methoxy-β-D-glucosyl)-4-methoxy-6-pentyl-2-pyrone], the “NO production inhibition ratio (%)” value in series [1] is recorded as 62.30 ± 1.46%. As to `COc1c(O[C@@H]2O[C@H](CO[C@@H]3OC[C@H](O)[C@H](O)[C@H]3O)[C@@H](O)[C@H](O)[C@H]2O)cc(OC)c2c(=O)c3ccccc3oc12` [3-O-(6-O-α-L-arabinopyranosyl)-β-D-gluco-pyranosyl-1,4-dimethoxyxanthone], the pIC50 in the series with HEp-2 cells was 5.05; in the series on HepG2 cells it was 4.80.
